Measured values as given in ChEMBL document CHEMBL6071190, “Discovery of BAY 2666605, a Molecular Glue for PDE3A and SLFN12” (ACS Med Chem Lett, 2024).

Experiments:
[1] = Metabolic stability in rat hepatocytes assessed as bioavailability at 1 uM measured upto 90 mins by LC-MS/MS analysis; format: ADME, Hepatocyte
[2] = Metabolic stability in mouse hepatocytes assessed as bioavailability at 1 uM measured upto 90 mins by LC-MS/MS analysis; format: ADME, Hepatocyte
SK-MEL3 = test: Antiproliferative activity against human SK-MEL3 cells incubated for 72 hrs by Cell Titer Glo luminescence assay; format: functional, cell-based; settings: SK-MEL3, 72 h
[3] = Clearance in mouse blood; format: ADME, tissue-based
[4] = Metabolic stability in dog hepatocytes assessed as bioavailability at 1 uM measured upto 90 mins by LC-MS/MS analysis; format: ADME, Canis lupus familiaris, Hepatocyte
[5] = Selectivity ratio of IC50 for inhibition of full-length human PDE3A expressed in Sf9 cells to EC50 for antiproliferative activity against human HeLa cells
[6] = Metabolic stability in human hepatocytes assessed as bioavailability at 1 uM measured upto 90 mins by LC-MS/MS analysis; format: ADME, Hepatocyte
HeLa = test: Antiproliferative activity against human HeLa cells incubated for 72 hrs by Cell Titer Glo luminescence assay; format: functional, cell-based
[7] = target: cGMP-inhibited 3',5'-cyclic phosphodiesterase 3A (Homo sapiens, UniProt Q14432); test: Inhibition of human full-length PDE3A expressed in Sf9 cells using [8-3H]adenosine 3', 5'-cyclic phosphate as substrate incubated for 60 mins by microbeta scintillation counting method
cGMP-inhibited 3',5'-cyclic phosphodiesterase 3A, sequence (Q14432 whole entry): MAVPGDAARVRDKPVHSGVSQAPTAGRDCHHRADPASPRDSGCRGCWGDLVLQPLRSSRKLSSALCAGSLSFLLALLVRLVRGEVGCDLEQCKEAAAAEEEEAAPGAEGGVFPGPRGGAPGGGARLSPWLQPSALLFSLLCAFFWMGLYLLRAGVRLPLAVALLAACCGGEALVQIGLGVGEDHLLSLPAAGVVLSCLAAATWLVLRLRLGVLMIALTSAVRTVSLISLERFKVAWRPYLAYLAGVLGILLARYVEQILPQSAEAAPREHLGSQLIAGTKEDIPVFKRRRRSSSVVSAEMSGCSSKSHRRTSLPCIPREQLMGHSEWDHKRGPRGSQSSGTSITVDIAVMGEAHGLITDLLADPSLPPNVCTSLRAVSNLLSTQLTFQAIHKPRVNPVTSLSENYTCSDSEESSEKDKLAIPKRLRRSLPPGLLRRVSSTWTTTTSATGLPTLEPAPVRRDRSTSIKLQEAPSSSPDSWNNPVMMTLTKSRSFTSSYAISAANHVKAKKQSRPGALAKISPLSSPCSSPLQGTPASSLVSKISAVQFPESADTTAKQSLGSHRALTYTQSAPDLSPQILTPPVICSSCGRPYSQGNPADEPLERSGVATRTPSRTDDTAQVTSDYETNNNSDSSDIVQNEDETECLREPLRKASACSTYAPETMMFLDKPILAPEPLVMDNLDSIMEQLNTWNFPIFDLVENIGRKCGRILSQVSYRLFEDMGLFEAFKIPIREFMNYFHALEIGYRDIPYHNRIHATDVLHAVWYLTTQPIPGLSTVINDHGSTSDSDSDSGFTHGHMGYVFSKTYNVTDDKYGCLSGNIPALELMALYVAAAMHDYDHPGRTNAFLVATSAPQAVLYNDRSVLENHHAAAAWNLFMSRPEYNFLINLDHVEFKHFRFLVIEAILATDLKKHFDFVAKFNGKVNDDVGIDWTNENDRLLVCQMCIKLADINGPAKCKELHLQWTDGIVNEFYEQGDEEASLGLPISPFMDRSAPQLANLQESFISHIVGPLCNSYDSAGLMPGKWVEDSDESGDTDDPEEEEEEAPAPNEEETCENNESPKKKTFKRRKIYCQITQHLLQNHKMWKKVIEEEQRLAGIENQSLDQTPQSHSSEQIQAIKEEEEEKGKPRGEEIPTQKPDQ

Structure (SMILES) | predicted hepatic bioavailability (Fh) from hepatocyte stability at 1 µM [1] [%] | Fh at 1.5 h, 1 µM [2] [%] | EC50 (SK-MEL3) [nM] | clearance [3] [mL/min/kg] | Fh at 1.5 h, 1 µM [4] [%] | Ratio IC50/EC50 [5] | hepatic bioavailability predicted from hepatocyte stability (Fh) at 1 µM [6] [%] | EC50 (HeLa) [nM] | IC50 [7] [nM]
O=C1NN=C(c2ccc(-c3ccc(F)cc3)c(C(F)(F)F)c2)CO1 | 84 | 38 | 7.95 | 5.83 | 44 | 112 | 70 | 2.54 | –
Cc1ccncc1-c1ccc(C2=NNC(=O)O[C@H]2C)cc1C(F)(F)F | – | – | 54.2 | – | – | 6 | – | 38.7 | –
C[C@@H]1CC(=O)NN=C1c1ccc(N2CCOCC2)c(F)c1 | 94 | – | 1.38 | – | – | 18 | – | 0.68 | 12.7
C[C@@H]1OC(=O)NN=C1c1ccc(-c2ccnc(N)c2)c(C(F)(F)F)c1 | 83 | 36 | 1.43 | 42 | 56 | 109 | 31 | 0.69 | 76
Cc1cc(-c2ccc(C3=NNC(=O)O[C@H]3C)cc2C(F)(F)F)ccn1 | – | – | 6.13 | – | – | 14 | – | 4.58 | –
Cc1cc(C2=NNC(=O)OC2)ccc1-c1ccc(F)cc1 | 88 | 40 | 12.8 | – | 48 | 44 | 75 | 4.94 | –
O=C1CCC(c2ccc(N3CCOCC3)cc2)=NN1 | – | – | 101 | – | – | >12 | – | 78.3 | > 1000
C[C@@H]1OC(=O)NN=C1c1ccc(-c2cccc(F)c2)c(C(F)(F)F)c1 | – | – | 5.85 | – | – | 22 | – | 3.42 | –
O=C1NN=C(c2ccc(-c3ccc(F)cc3)c(OC(F)(F)F)c2)CO1 | 85 | 32 | 12.9 | – | 68 | 39 | 80 | 5.67 | 222
O=C1NN=C(c2ccc(N3CCC(F)(F)CC3)c(C(F)(F)F)c2)CO1 | 67 | 37 | 5.06 | – | 28 | – | – | 1.59 | –
C[C@@H]1OC(=O)NN=C1c1ccc(-c2ccncc2)c(C(F)(F)F)c1 | 93 | 41 | 1.09 | – | – | 112 | – | 0.6 | 67
C[C@@H]1OC(=O)NN=C1c1ccc(N2CCOCC2)c(C(F)(F)F)c1 | 84 | – | 0.77 | – | – | 18 | – | 0.34 | 6.3
Cc1ccc(-c2ccc(C3=NNC(=O)O[C@H]3C)cc2C(F)(F)F)cn1 | – | – | 6.31 | – | – | 8 | – | 4.37 | –
C[C@@H]1CC(=O)NN=C1c1ccc(N2CCCCC2)cc1 | 27 | – | 4.48 | – | – | 126 | – | 1.72 | 217
COc1ccc(-c2ccc(C3=NNC(=O)O[C@H]3C)cc2C(F)(F)F)cc1 | – | – | 37.7 | – | – | 4.1 | – | 21.8 | –
C[C@@H]1OC(=O)NN=C1c1ccc(-c2ccccc2F)c(C(F)(F)F)c1 | – | – | 15.1 | – | – | 18 | – | 8.19 | –
C[C@@H]1CC(=O)NN=C1c1cc(F)c(N2CCOCC2)c(F)c1 | 90 | – | 2.07 | – | – | 4 | – | 0.97 | 3.95
O=C1CCC(c2ccc(N3CCOCC3)c(F)c2)=NN1 | – | 80 | 19.9 | – | – | 31 | – | 6.18 | 190
C[C@@H]1CC(=O)NN=C1c1cc(F)c(N2CCOCC2)c(Cl)c1 | 58 | – | 0.9 | – | – | 5.5 | – | 0.35 | 1.9
C[C@@H]1OC(=O)NN=C1c1ccc(-c2ccc(Cl)cn2)c(C(F)(F)F)c1 | 78 | 53 | 0.25 | – | 24 | >90 | – | 11.1 | > 1000
O=C1NN=C(c2ccc(N3CCOCC3)c(C(F)(F)F)c2)CO1 | 83 | – | 3.4 | – | – | 12 | – | 1.87 | 23
C[C@@H]1OC(=O)NN=C1c1ccc(-c2ccc(O)cc2)c(C(F)(F)F)c1 | – | – | 1.14 | – | – | 38 | – | 0.68 | 26.2
C[C@@H]1OC(=O)NN=C1c1ccc(N2CCOCC2)c(F)c1 | 90 | – | 2.6 | – | – | 23 | – | 1.83 | 43
O=C1NN=C(c2ccc(N3CCOCC3)c(F)c2)CO1 | 94 | 47 | 15.6 | – | 100 | 26 | – | 6.9 | 180
O=C1CCC(c2cc(Cl)c(N3CCOCC3)c(Cl)c2)=NN1 | – | – | 16.8 | – | – | 8.5 | – | 6.9 | –
O=C1NN=C(c2ccc(N3CCC(F)(F)CC3)c(F)c2)CO1 | 84 | 19 | 3.85 | 91.7 | – | 178 | 82 | 1.55 | –
C[C@@H]1OC(=O)NN=C1c1ccc(N2CCN(C)CC2)c(C(F)(F)F)c1 | 11 | 18 | 0.82 | – | – | 172 | – | 0.32 | 55
COc1ccc(-c2ccc(C3=NNC(=O)O[C@H]3C)cc2C(F)(F)F)cn1 | – | – | 39.8 | – | – | 4 | – | 22.5 | –
O=C1NN=C(c2ccc(-c3ccc(F)cc3)c(F)c2)CO1 | 84 | 54 | 3.6 | – | – | 57 | – | 1.48 | 84
